From publication PMC12378234, “Enzyme-mediated aminoglycoside resistance without target mimicry” (Communications Chemistry, 2025)
Converted amounts (≈) assume the structure as drawn. “And” between values parts separate entries of the source, which are not always exact repeats. Identical values can stand only once. Like-named read-outs stand apart in the source and are kept apart here.

Columns and labels:
[1] = system: BL21(DE3) E. coli transformed with pUCP18 vector expressing untagged AAC(3)-IIIa; type: cell-based; details: E. coli expressing AAC(3)-IIIa; 12 μg mL^−1 antibiotic; 17 h
Method: (§1) Ten milliliters of LB containing […] ampicillin were inoculated from glycerol stocks of transformed BL21(DE3) E. coli containing genes expressing the proteins of interest in pUCP18 vectors. These cultures were incubated at 37 °C with 200 rpm agitation for 16 h. Turbidity was measured through OD600 with a NanoDrop OneC Spectrometer (Thermo Scientific). From the initial cultures, secondary 10 mL cultures were prepared with OD600 values of 0.1. These cultures were grown until OD600 values of 0.4–0.6 were reached and diluted to bring all cultures to the same OD600. Cultures were induced with 1 mM Isopropyl β-D-1-thiogalactopyranoside and incubated for 4 h. Two microliters of culture was added to 198 μL of LB with an appropriate aminoglycoside titration concentration. Each titration point was repeated n = 4 times. The formulated 96-well culture plate (Sarstedt) had OD600 measured on a 20-min interval over 17 h using a BioTek Cytation 5 Cell Imaging Multimode Reader, incubating at 37 °C with 282 cpm orbital agitation. Experiments were repeated with fresh cultures on separate days to ensure consistent trends. Data was analyzed in Microsoft Excel and GraphPad5. The remainder of the culture immediately had its RNA isolated for qPCR experiments.

[2] = system: BL21(DE3) E. coli transformed with pUCP18 vector expressing untagged AAC(3)-Ia; type: cell-based; details: E. coli expressing AAC(3)-Ia; 12 μg mL^−1 antibiotic; 17 h
Method: as §1

[3] = system: BL21(DE3) E. coli transformed with pUCP18 vector expressing untagged AAC(3)-XIa; type: cell-based
Method: as §1

AAC(3)-IIIa = biological target: T1, AAC(3)-IIIa (Pseudomonas aeruginosa, UniProt P29808); assay: Isothermal titration calorimetry; type: binding, P. aeruginosa
T1 construct: 6xHis-tag (thrombin-cleavable, pET15b) (N); made in house; host or cells: LOBSTR E. coli
Method: To accurately measure protein ligand interactions, the concentration of our proteins of interest was measured spectrophotometrically using the NanoDrop OneC Spectrometer (Thermo Scientific). ITC experiments were performed on a MicroCal iTC 200 (General Electric) at 25 °C with stirring at 750 rpm. Unique buffer solutions were used for each enzyme. AAC(3)-Ia was prepared in 50 mM HEPES, pH 7, and 150 mM NaCl. AAC(3)-IIIa was prepared in 120 mM Tris, pH 7.5, and 150 mM NaCl. AAC(3)-XIa was prepared in 20 mM Tris, pH 7.5, and 150 mM NaCl. The cell contained 550 μM AAC(3)-Ia, 350 μM AAC(3)-IIIa, or 450 μM AAC(3)-XIa. All experiments also contained 5000 μM of coenzyme A trilithium salt in the cell. […] In all ITC experiments, aminoglycosides were prepared in the same buffering solution as the target protein. The ligands were injected 29 times ([…] per injection) with a 180 s interval between injections. Results were analyzed using ORIGIN software version 7E (MicroCal) using the molecular weight of a single protomer of each protein and fitted with a two-set of sites binding model (Supplementary Fig. 5). Data analysis was performed in Microsoft Excel and GraphPad5 software. One-way ANOVA and Tukey’s multiple comparison tests were used to determine the statistical significance of binding affinities.

[4] = system: empty pUCP18 vector transformed E. coli; assay: Antibiotic susceptibility testing, endpoint MIC assay; type: cell-based; details: Escherichia coli; empty pUCP18 vector control E. coli; after 20 h of growth; read-out: Endpoint minimum inhibitory concentration (MIC)
Method: (§2) Ten milliliters of cultures of LB containing […] ampicillin were inoculated from glycerol stocks of transformed BL21(DE3) E. coli containing genes expressing the proteins of interest in pUCP18 vectors. Experiments were performed using 6xHis-tagged fusion-proteins, as well as untagged wild-type proteins. These cultures were incubated at 37 °C with 200 rpm agitation for 16 h. Turbidity was measured through OD600 with a NanoDrop OneC Spectrometer (Thermo Scientific). From the initial cultures, secondary 10 mL cultures were prepared with OD600 values of 0.1. These cultures were grown until OD600 values of 0.4–0.6 were reached and diluted to bring all cultures to the same OD600. Cultures were induced with 1 mM Isopropyl β-D-1-thiogalactopyranoside and incubated for 4 h. Cultures were diluted to 1 × 10^6 cells mL^−1. Two microliters of culture was added to 198 μL of LB with an appropriate aminoglycoside titration concentration. The formulated 96-well culture plate (Sarstedt) was incubated at 37 °C with 120 rpm orbital agitation. The remainder of the bacterial culture was immediately lysed and processed for Western blotting. OD600 was measured after 20 h using the Molecular Devices Spectra MAX 190 plate reader.

[5] = system: BL21(DE3) E. coli transformed with pUCP18 vector expressing AAC(3)-IIIa; assay: as above; type: cell-based; details: Escherichia coli, 20 h, read-out: Endpoint minimum inhibitory concentration (MIC)
Method: as §2

[6] = system: BL21(DE3) E. coli transformed with pUCP18 vector expressing AAC(3)-Ia; assay: as above; type: cell-based; details: Escherichia coli, 20 h, read-out: Endpoint minimum inhibitory concentration (MIC)
Method: as §2

[7] = system: BL21(DE3) E. coli transformed with pUCP18 vector expressing AAC(3)-XIa; assay: as above; type: cell-based; details: Escherichia coli, 20 h, read-out: Endpoint minimum inhibitory concentration (MIC)
Method: as §2

[8] = first set of sites, 25 °C, with coenzyme A, n = 3
[9] = second set of sites, 25 °C, with coenzyme A, n = 3

T1 sequence (P29808 whole entry): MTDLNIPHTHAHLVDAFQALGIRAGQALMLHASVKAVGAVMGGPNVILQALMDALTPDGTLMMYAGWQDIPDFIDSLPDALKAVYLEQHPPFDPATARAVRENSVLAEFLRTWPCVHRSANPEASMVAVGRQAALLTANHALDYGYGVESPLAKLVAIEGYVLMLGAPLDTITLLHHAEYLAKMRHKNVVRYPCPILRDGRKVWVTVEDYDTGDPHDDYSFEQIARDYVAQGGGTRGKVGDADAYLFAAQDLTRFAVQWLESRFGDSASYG

In the case of `CN[C@@H]1[C@@H](O)[C@@H](O[C@@H]2[C@@H](O)[C@H](O[C@H]3OC(CN)=CC[C@H]3N)[C@@H](N)C[C@H]2N)OC[C@]1(C)O` [Sisomicin, sisomicin], the “Growth (OD600 growth curve)” value [1] is reported as “none of the strains of transformed E. coli were able to grow at all”, the “Growth (OD600 growth curve)” value [2] is reported as “none of the strains of transformed E. coli were able to grow at all” and the OD600 growth curve ([3]; 3 ug/mL Sisomicin, time point 12:39:10) is reported as 0.741 and 0.631 and 0.615 and 0.786. The OD600 growth curve ([3]; 3 ug/mL Sisomicin, time point 12:59:10) was 0.747 and 0.634 and 0.621 and 0.795, the OD600 growth curve ([3]; 3 ug/mL Sisomicin, time point 13:19:10) was 0.745 and 0.632 and 0.619 and 0.794 and the OD600 growth curve ([3]; 3 ug/mL Sisomicin, time point 13:39:10) was 0.742 and 0.632 and 0.619 and 0.79. The OD600 growth curve ([3]; 3 ug/mL Sisomicin, time point 13:59:10) was 0.738 and 0.632 and 0.618 and 0.787, the OD600 growth curve ([3]; 3 ug/mL Sisomicin, time point 14:19:10) was 0.744 and 0.634 and 0.623 and 0.797 and the OD600 growth curve ([3]; 3 ug/mL Sisomicin, time point 14:39:10) was 0.747 and 0.635 and 0.625 and 0.799. For the same compound, the OD600 growth curve ([3]; 3 ug/mL Sisomicin, time point 14:59:10) was 0.745 and 0.635 and 0.627 and 0.795, the OD600 growth curve ([3]; 6 ug/mL Sisomicin, time point 12:39:10) was 0.62 and 0.602 and 0.749 and 0.849 and the OD600 growth curve ([3]; 6 ug/mL Sisomicin, time point 12:59:10) was 0.627 and 0.606 and 0.748 and 0.838. The OD600 growth curve ([3]; 6 ug/mL Sisomicin, time point 13:19:10) was 0.634 and 0.612 and 0.751 and 0.829, the OD600 growth curve ([3]; 6 ug/mL Sisomicin, time point 13:39:10) was 0.639 and 0.613 and 0.744 and 0.819 and the OD600 growth curve ([3]; 6 ug/mL Sisomicin, time point 13:59:10) was 0.641 and 0.612 and 0.741 and 0.805. The OD600 growth curve ([3]; 6 ug/mL Sisomicin, time point 14:19:10) was 0.645 and 0.615 and 0.738 and 0.792, the OD600 growth curve ([3]; 6 ug/mL Sisomicin, time point 14:39:10) was 0.654 and 0.626 and 0.749 and 0.784 and the OD600 growth curve ([3]; 6 ug/mL Sisomicin, time point 14:59:10) was 0.663 and 0.629 and 0.759 and 0.771. For the same compound, the OD600 growth curve ([3]; 6 ug/mL Sisomicin, time point 15:19:10) was 0.67 and 0.64 and 0.762, the OD600 growth curve ([3]; 12 ug/mL Sisomicin, time point 12:39:10) was 0.093 and 0.101 and 0.109 and 0.105 and the OD600 growth curve ([3]; 12 ug/mL Sisomicin, time point 12:59:10) was 0.093 and 0.101 and 0.109 and 0.105. The OD600 growth curve ([3]; 12 ug/mL Sisomicin, time point 13:19:10) was 0.093 and 0.101 and 0.108 and 0.104, the OD600 growth curve ([3]; 12 ug/mL Sisomicin, time point 13:39:10) was 0.093 and 0.101 and 0.108 and 0.104 and the OD600 growth curve ([3]; 12 ug/mL Sisomicin, time point 13:59:10) was 0.093 and 0.1 and 0.108 and 0.104. The OD600 growth curve ([3]; 12 ug/mL Sisomicin, time point 14:19:10) was 0.093 and 0.1 and 0.108 and 0.103, the OD600 growth curve ([3]; 12 ug/mL Sisomicin, time point 14:39:10) was 0.093 and 0.1 and 0.108 and 0.103 and the OD600 growth curve ([3]; 12 ug/mL Sisomicin, time point 14:59:10) was 0.093 and 0.1 and 0.107 and 0.103. The OD600 growth curve ([3]; 12 ug/mL Sisomicin, time point 15:19:10) was 0.093, the “Growth (OD600 growth curve)” value ([3]; E. coli expressing AAC(3)-XIa, 12 μg mL^−1 antibiotic, 17 h) was “none of the strains of transformed E. coli were able to grow at all” and the TΔS (AAC(3)-IIIa; [8]) was -0.411 ± 0.318 kcal/mol. For the same compound, the ΔG (AAC(3)-IIIa; [8]) was -8.05 ± 0.474 kcal/mol, the ΔH (AAC(3)-IIIa; [8]) was -8.46 ± 0.351 kcal/mol and the “N (sites)” value (AAC(3)-IIIa; first set of sites, two-set of sites model, 25 °C, with coenzyme A, n = 3) was 0.35 ± 0.03 sites. The Kd (AAC(3)-IIIa; first set of sites, two-set of sites model, 25 °C, with coenzyme A, n = 3, read-out: Kd) was 1300 ± 100 nM, the Kd (AAC(3)-IIIa; individual replicates, raw data behind Fig. 6, read-out: Kd) was 1420 nM and 1170 nM and 1230 nM and the “N2 (sites)” value (AAC(3)-IIIa; [9]) was 0.56 ± 0.04 sites. For the same compound, the “TΔS 2” value (AAC(3)-IIIa; [9]) was 2 ± 0.146 kcal/mol, the “ΔG 2” value (AAC(3)-IIIa; [9]) was -7.74 ± 0.204 kcal/mol and the “ΔH 2” value (AAC(3)-IIIa; [9]) was -5.74 ± 0.143 kcal/mol. The Kd (AAC(3)-IIIa; second set of sites, 25 °C, with coenzyme A, n = 3, read-out: Kd2) was 2100 ± 200 nM, the MIC [4] was 6 µg/mL (≈ 13.4 µM) and the MIC [5] was 12 µg/mL (≈ 26.8 µM). It also gave an MIC [6] of 6 µg/mL (≈ 13.4 µM) and an MIC [7] of 12 µg/mL (≈ 26.8 µM).
